Data: publication PMC7848024, “Synthetic Cationic Autoantigen Mimics Glatiramer Acetate Persistence at the Site of Injection and Is Efficacious Against Experimental Autoimmune Encephalomyelitis” (Frontiers in Immunology, 2021)
Entries after “also recorded” stand apart in the source; their conditions may differ.

What was measured:
footpads of mice = test: In vivo migration imaging: retention at the footpad injection site; conditions: 10 μl into the footpad, cy7-labeled mixed with unlabeled compound, 20 mg/ml (PLP molar equivalent), dye 25 μM; 1-4 h; near-IR imaging; one mouse per compound
Method: Herein, the labeled compounds will be referred to as cy7-GA, cy7-K-PLP, cy7-PEG and cy7-PLP.
Similar imaging method as previously described was used ([15]). Three female SJL/J mice (20-25 g, Envigo, Indianapolis, IN) were used for imaging, one each for K-PLP, PLP, and GA. Unlabeled K-PLP and unlabeled GA were mixed with cy7-K-PLP and cy7-GA, respectively, to a final concentration of 20 mg/ml with the amount of dye normalized to the equivalent of 25 μM of free cyanine 7 dye. Similarly, unlabeled PLP was mixed with cy7-PLP to a concentration that is molar equivalent to 20 mg/ml of K-PLP with the amount of dye normalized to the equivalent of 25 μM of free cyanine 7 dye. Each mouse was injected with 10 μl of their respective treatment at the center of the footpad every hour for 4 h in the following order: left forelimb at the 1-h time point, right forelimb at the 2-h time point, left hindlimb at the 3-h time point, and right hindlimb at the 4-h time point for K-PLP; right forelimb at the 1-h time point, left forelimb at the 2-h time point, right hindlimb at the 3-h time point, and left hindlimb at the 4-h time point for both GA and PLP. […]

[1] = Subcutaneous injection simulation (Scissor): aggregation and release; assay type: physicochemical; conditions: for formation of visible aggregates in HA: 1 ml of 20 mg/ml injected into 10 mg/ml HA (1.5–1.8 MDa), Scissor cartridge, visual observation
Method: The subcutaneous injection simulation was performed using the method previously described ([15]). 1 ml of 20 mg/ml K-PLP in 40 mg/ml mannitol solution was injected into Scissor cartridge containing 10 mg/ml 1.5–1.8 MDa hyaluronic acid (HA). Time points were collected over 3 days and concentration of K-PLP released into the chamber buffer was determined using a bicinchoninic acid assay (Micro BCA protein assay kit, Thermo Scientific, Waltham, MA) by constructing a calibration curve with K-PLP concentrations of 2, 5, 10, 20, 30, and 40 µg/ml. The concentration values were adjusted to account for K-PLP that was taken out during sampling and then converted to percentage of K-PLP released before plotted as a function of time.

[2] = cited from earlier work; for formation of visible aggregates in the presence of HA (literature): in the presence of glycosaminoglycans such as HA
From the text: GA consists of a broad population of peptides (average MW 5–9 kDa) comprising four amino acids (AKEY). Lysine is the predominant amino acid at ~34% of the molar mass, which imbues a strong cationic character (pI ~10). […] Approximately 30% of GA remained aggregated after 3 days according to in vitro subcutaneous (SC) injection simulation experiments. […] GEMSP consists of a mixture of fatty acid linked poly-lysine (PLL), antioxidants-PLL, free radical scavengers-PLL, and amino acids-PLL.

[3] = test system: EAE induced using PLP 139-151; test: In vivo efficacy study, EAE animal model; parameters: species or system SJL/J (H-2) mice
Method: In vivo efficacy of K-PLP was assessed using the EAE animal model induced in female 4-6-week old SJL/J (H-2) mice (20–25 g, Envigo, Indianapolis, IN). All protocols were approved through the University’s Institutional Animal Care and Use Committee, and all animals were housed in pathogen-free conditions. EAE induction and treatment schedule were based on methods previously described ([18]–[20]). […]. Additionally, on day 0 each mouse received a 100 μl intraperitoneal injection of pertussis toxin at 100 ng/ml. This administration of pertussis toxin was repeated on day 2. Beginning on day 7, disease severity was monitored daily through the use of a symptom scoring system as follows: 0, no clinical disease symptoms; 1, weakness or limpness of the tail; 2, weakness or partial paralysis of one or two hind limbs (paraparesis); 3, full paralysis of both hind limbs (paraplegia); 4, paraplegia plus weakness or paralysis of forelimbs; 5, moribund (euthanasia necessary). Mouse weight was also recorded daily throughout the study. In vivo treatment groups consisted of 6 mice per group. Treatments were administered in 100 μl SC injections formulated in 40 mg/ml mannitol. Injections were administered between the shoulder blades. Copaxone and K-PLP were administered at 4.5 mg/ml while 9-unit poly-lysine was administered at the molar equivalent to K-PLP injections, resulting in a concentration of 1.7 mg/ml. Treatment injections were performed on days 4, 7, and 10 following EAE induction. Mouse weights were recorded daily beginning on day 0 and clinical scores were recorded daily beginning on day 7. Statistical analysis was performed using two-way analysis of variance (ANOVA) on the clinical scores and weights, one-way ANOVA on the cumulative clinical scores, followed by Turkey comparison tests for all. Statistical significance for all analyses was set at p<0.05. All statistical analyses were performed using GraphPad Software (GraphPad Software Inc.).

[4] = Dynamic light scattering particle sizing; assay type: physicochemical
Method: Raman and dynamic light scattering were performed with a Malvern Helix (Malvern Instruments, Malvern, UK). 20 μl of K-PLP at a concentration of 10 mg/ml in 150 mM citrate-phosphate buffer at pH 6 was loaded into a custom steel cuvette with quartz windows. Raman scattering from a 785 nm laser was collected in a backscattering geometry. Samples were measured in triplicate, each replicate consisted of 10 acquisitions of 10 second exposure each. The Zetasizer Helix Analyze software (Malvern Instruments) was used to buffer subtract, normalize to the phenylalanine peak (1003 cm-1), then baseline spectra for analysis. Dynamic light scattering autocorrelation functions were measured with a 632 nm laser with light collected in a 173° angle backscattering geometry. Autocorrelation functions were fit using the method of cumulants.

Row | Substance | fluorescence intensity at the footpads over 4 h (footpads of mice) | formation of visible aggregates in HA [1] | formation of visible aggregates in the presence of HA (literature) [2] | remained aggregated after 3 days ([2]; in vitro subcutaneous injection simulation, 3 days) | disease progression compared to the control (mannitol) ([3]; 100 μl SC, days 4, 7 and 10, Copaxone 4.5 mg/ml, 9-unit poly-lysine 1.7 mg/ml, 6 mice per group) | release rate compared to GA ([1]; Scissor release profile over 3 days, GA profile from ref 15) | remained in the cartridge at the end of the three-day experiment ([1]; Scissor, 20 mg/ml into 10 mg/ml HA, end of 3 days) | plateau of release into the chamber after 2 days ([1]; Scissor, 1 ml of 20 mg/ml in 40 mg/ml mannitol into 10 mg/ml HA, after 2 days, Micro BCA assay) | K-PLP released into the chamber over the first 3 h ([1]; Scissor, 1 ml of 20 mg/ml in 40 mg/ml mannitol into 10 mg/ml HA, first 3 h, Micro BCA assay) | mean size (DLS) ([4]; 10 mg/ml in 150 mM citrate-phosphate buffer pH 6, 632 nm laser, 173° backscattering, method of cumulants, triplicate) | polydispersity (DLS) ([4]; 10 mg/ml in 150 mM citrate-phosphate buffer pH 6, over the temperature ramp) | clinical score ([3]; 100 μl SC in 40 mg/ml mannitol, 4.5 mg/ml, days 4, 7 and 10, scores to day 25, 6 mice per group) | percentage of disease-free mice ([3]; 100 μl SC, days 4, 7 and 10, 6 mice per group) | weight decrease ([3]; 100 μl SC, days 4, 7 and 10, % weight change normalized to day 7, 6 mice per group) | weight loss from day 13 to day 17 (peak disease) ([3]; compared to 9-unit poly-lysine (p<0.0001) and PLP (p<0.01), two-way ANOVA) | cumulative clinical scores, day 0 to day 25 ([3]; one-way ANOVA, 6 mice per group)
1 | glatiramer acetate [GA, reference compound] | did not significantly decrease over the course of the experiment | Formation of aggregates was observed immediately | forms large, visible aggregates | Approximately 30% | any deviations from the control were not statistically significant; also recorded: did not significantly improve the clinical outcomes | – | – | – | – | – | – | – | – | – | – | –
2 | poly-lysine | – | – | able to form visible aggregates | – | – | – | – | – | – | – | – | – | – | – | – | –
3 | NH2-KKKKKKKKKKK-PEG-PEG-PEG-PEG-HSLGKWLGHPDKF-OH [K-PLP] | – | visible aggregates were formed immediately | – | – | – | released at a similar rate as GA | approximately 20% | around 80% | approximately 20% | around 2 nm | less than 0.3 | lowest clinical score | highest percentage of disease-free mice | least weight decrease | no significant weight loss | significant improvement over 9-unit poly-lysine, but not PLP
